Test results taken from patent US20230322805A1, “NOVEL PYRIMIDODIAZEPINE DERIVATIVES OR USES THEREOF” (SPARK BIOPHARMA, INC., priority 2020, published 2023).

What was measured:
[1] = biological target: T1, PDIA3 (PDI reductase activity) (Homo sapiens, UniProt P30101); assay: PEG maleimide modification assay of PDI oxidation state; type: cell-based; details: BiFC-tau HEK293 cells, 200 nM TG and 40 μM SB1617 for 3.5 hours, versus thapsigargin alone
T1 construct: endogenous in cells; host or cells: HEK293 BiFC-tau cells (TS-FITGE, CETSA, PEG-maleimide assay)
T1 sequence (P30101 25-505): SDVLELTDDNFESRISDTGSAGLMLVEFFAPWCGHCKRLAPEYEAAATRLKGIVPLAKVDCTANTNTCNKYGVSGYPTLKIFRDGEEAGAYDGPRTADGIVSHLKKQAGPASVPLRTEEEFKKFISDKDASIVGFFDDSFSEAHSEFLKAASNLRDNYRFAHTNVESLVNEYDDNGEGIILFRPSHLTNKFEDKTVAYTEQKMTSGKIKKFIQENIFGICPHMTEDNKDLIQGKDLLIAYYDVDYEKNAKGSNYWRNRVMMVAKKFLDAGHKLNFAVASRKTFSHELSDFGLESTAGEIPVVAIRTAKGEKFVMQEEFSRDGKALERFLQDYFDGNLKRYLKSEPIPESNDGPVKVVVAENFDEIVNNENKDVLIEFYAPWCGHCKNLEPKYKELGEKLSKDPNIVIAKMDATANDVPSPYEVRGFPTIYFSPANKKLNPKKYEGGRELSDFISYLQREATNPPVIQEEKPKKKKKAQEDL
Procedure: Cysteine modification analysis using PEG maleimide was performed according to the paper (P. Kranz, F. Neumann, A. Wolf, F. Classen, M. Pompsch, T. Ocklenburg, J. Baumann, K. Janke, M. Baumann, K. Goepelt, H. Riffkin, E. Metzen, U. Brockmeier, PDI is an essential redox-sensitive activator of PERK during the unfolded protein response (UPR). Cell Death Dis. 8, e2986 (2017)).
After compound treatment, BiFC-tau HEK293 cells were washed with cold PBS, incubated with 20 mM N-ethylmaleimide (NEM, Sigma Aldrich) in PBS for 20 minutes on ice to alkylate the reduced form of cysteine, and after washing with cold PBS, the cells were lysed in RIPA buffer. For whole cell analysis, the lysate was centrifuged at 200 g for 5 min at 4° C. to remove insoluble material. Protein concentration in the supernatant was analyzed by Pierce BCA Protein Assay Kit. Equal amounts of each lysate were treated with 12 mM tris(2-carboxyethyl)phosphine (TCEP, Sigma Aldrich) for 20 minutes at room temperature to reduce the form of oxidized PDI. Lysates were incubated with 15 mM methoxy polyethylene glycol 5000 maleimide (mPEG-mal5000, Sigma Aldrich) for 1 hour at room temperature. […]
3-2. […] Maleimides with two different molecular weights allow the bands of oxidized and reduced forms of PDI to be readily separated by electrophoresis.

[2] = test system: PERK signaling (p-PERK, p-elF2a, ATF4); assay: Time course of PERK activation in SH-SY5Y cells (immunoblot); type: cell-based, human
Procedure: 4-2. PDIA3 and DNAJC3 play a role in regulating tau aggregation by inhibiting the PERK signaling pathway. Accordingly, human neuroblastoma SH-SY5Y cells were treated with 10 μM SB1617, treated with or without thapsigargin, and PERK activation was confirmed over time.
The stress-response potency of SB1617 may be due to upregulation of PDIA3 and DNAJC3 levels or changes in the redox state of partner proteins under ER stress conditions.

PDIA3 = biological target: T2, PDIA3 (Homo sapiens, UniProt P30101); assay: TS-FITGE thermal stability shift; type: binding; set-up: endogenous in cells; host or cells: HEK293 BiFC-tau cells (TS-FITGE, CETSA, PEG-maleimide assay); details: 10 μM, 200 nM thapsigargin, 3 hours, HEK293 BiFC-tau cells
T2 sequence (P30101 25-505): T1 sequence (P30101 25-505)
Procedure: HEK293 BiFC-tau cells were treated with dimethylsulfoxide (DMSO, 0.1%) and a compound according to the present invention (10 μM) in the presence of thapsigargin (200 nM) for 3 hours. The cell suspension was heated at the indicated temperature range for 3 minutes and then at 25° C. for 3 minutes. The heated cells were washed with PBS and resuspended in lysis buffer A (0.4% NP-40 in PBS supplemented with protease inhibitor cocktail). For cell lysis, cell suspensions were freeze-thawed in liquid nitrogen three times. The cell lysate was washed by centrifugation at 20000 g, 4° C. for 20 minutes. Protein concentration of the soluble fraction was quantified by Pierce BCA protein assay. After precipitating 50 μg of protein with cold acetone, it was centrifuged at […] and 4° C. for 7 minutes. The residual pellet was resuspended in 10 μl of conjugation buffer (30 mM Tris-HCl at pH 8.6, 30 mM thiourea, 7 M urea and 4% w/v CHAPS). 1 μl of 0.4 mM Cy2-N-hydroxysuccinimide(Cy2-NHS) (for DMSO-treated group), Cy3-NHS (for SB1607-treated group) or Cy5-NHS (for SB1617-treated group) was mixed with the protein and incubated at 4° C. for 45 minutes. […] Protein spot locations and fluorescence signals were analyzed with DeCyder 2D software ver. […]

## CN(Cc1ccc(Cl)cc1)c1ncnc2c1[C@@H]1OC[C@H](CN2)N1S(=O)(=O)c1ccc([N+](=O)[O-])cc1 [Compound 117]
[1]
  oxidation state of PDI: significantly converted from the reduced form to the oxidized form
[2]; 10 μM SB1617, with thapsigargin
  PERK activation over time: prolonged PERK activation
[2]; 10 μM SB1617, without thapsigargin (absence of cell stress)
  activation of downstream PERK signaling: not significant
PDIA3
  thermal stability of protein (TS-FITGE): thermal stability of the protein was improved
